Read-outs that look alike come from different tables or passages of the source.
Columns and labels:
RAF kinases [1] = biological target: T1, RAF kinases (Homo sapiens, UniProt P04049); assay: Competition binding assay to determine binding constants (Kd) between compounds and RAF kinases; settings: RAF1
T1 construct: rows headed: RAF1 Kd; other: RAF1; fused on or other part: T7 phage fusion, or DNA tag for PCR detection after expression in HEK-293 cells
Procedure: (§1) Competition binding assays used herein were developed, validated and performed as described in Fabian et al., Nature Biotechnology 2005, 23, 329-336. […] The liganded beads were blocked with excess biotin and washed with blocking buffer (SeaBlock (Pierce), 1% BSA, 0.05% Tween 20, 1 mM DTT) to remove unbound ligand and to reduce non-specific binding. […] Test compounds were prepared as 100× stocks in DMSO and rapidly diluted into the aqueous environment. DMSO was added to control assays lacking a test compound. Primary screen interactions were performed in polypropylene 384-well plates in a final volume of 34 μL, while Kd determinations were performed in polystyrene 96-well plates in a final volume of 135 pt. […] The kinase concentration in the eluates was measured by quantitative PCR. Each kinase was tested individually against each compound. Kds were determined using eleven serial threefold dilutions. A selectivity score, which is a quantitative measure of selectivity of a compound against a panel of enzymes, may be calculated for a compound by dividing the number of enzymes for which a compound meets a set criteria, (for example, a binding constant of 100 nM or less), by the total number of enzymes tested. […] (Note, for those compounds tested in a larger kinase panel, as indicated by an asterisk (*) next to the S35 score, the divisor is 321 (i.e. the larger panel contains 321 distinct kinases, excluding mutant variants.)).

[2] = tested on: panel of 290 distinct kinases (321 in the larger panel), excluding mutant variants; settings: no asterisk: panel of 290 distinct kinases
Procedure: as §1

RAF kinases [3] = biological target: T2, RAF kinases (Homo sapiens, UniProt P15056, V600E); assay: Competition binding assay to determine binding constants (Kd) between compounds and RAF kinases; settings: BRAF V600E
T2 construct: rows headed: BRAF V600E Kd; other: BRAF V600E; fused on or other part: T7 phage fusion, or DNA tag for PCR detection after expression in HEK-293 cells
Procedure: as §1

RAF kinases [4] = biological target: T3, RAF kinases (Homo sapiens, UniProt P15056); assay: as above; settings: BRAF WT
T3 construct: rows headed: BRAF WT Kd; other: BRAF WT; fused on or other part: T7 phage fusion, or DNA tag for PCR detection after expression in HEK-293 cells
Procedure: as §1

[5] = fraction of kinases inhibited 65% or greater

T2 sequence (P15056 whole entry V600E, the tested form may be a part): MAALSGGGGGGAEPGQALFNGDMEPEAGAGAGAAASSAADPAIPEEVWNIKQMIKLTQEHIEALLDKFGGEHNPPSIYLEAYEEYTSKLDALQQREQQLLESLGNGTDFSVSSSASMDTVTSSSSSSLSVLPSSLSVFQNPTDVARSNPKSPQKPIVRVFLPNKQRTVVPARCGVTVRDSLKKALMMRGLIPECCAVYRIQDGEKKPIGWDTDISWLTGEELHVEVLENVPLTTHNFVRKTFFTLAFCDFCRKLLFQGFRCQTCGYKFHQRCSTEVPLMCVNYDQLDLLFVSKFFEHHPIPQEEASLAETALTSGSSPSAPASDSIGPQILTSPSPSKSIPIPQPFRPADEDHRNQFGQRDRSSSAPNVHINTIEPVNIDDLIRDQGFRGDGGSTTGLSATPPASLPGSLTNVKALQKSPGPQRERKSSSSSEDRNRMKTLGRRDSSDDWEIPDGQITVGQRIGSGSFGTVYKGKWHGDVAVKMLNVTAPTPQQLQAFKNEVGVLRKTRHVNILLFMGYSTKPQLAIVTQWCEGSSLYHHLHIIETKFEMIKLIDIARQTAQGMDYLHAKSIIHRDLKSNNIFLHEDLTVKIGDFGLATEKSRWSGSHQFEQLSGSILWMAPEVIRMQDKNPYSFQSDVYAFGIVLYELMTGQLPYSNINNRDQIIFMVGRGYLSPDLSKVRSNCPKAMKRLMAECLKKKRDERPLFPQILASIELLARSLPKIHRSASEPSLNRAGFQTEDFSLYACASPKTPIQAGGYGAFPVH
T1 sequence (P04049 whole entry, the tested form may be a part): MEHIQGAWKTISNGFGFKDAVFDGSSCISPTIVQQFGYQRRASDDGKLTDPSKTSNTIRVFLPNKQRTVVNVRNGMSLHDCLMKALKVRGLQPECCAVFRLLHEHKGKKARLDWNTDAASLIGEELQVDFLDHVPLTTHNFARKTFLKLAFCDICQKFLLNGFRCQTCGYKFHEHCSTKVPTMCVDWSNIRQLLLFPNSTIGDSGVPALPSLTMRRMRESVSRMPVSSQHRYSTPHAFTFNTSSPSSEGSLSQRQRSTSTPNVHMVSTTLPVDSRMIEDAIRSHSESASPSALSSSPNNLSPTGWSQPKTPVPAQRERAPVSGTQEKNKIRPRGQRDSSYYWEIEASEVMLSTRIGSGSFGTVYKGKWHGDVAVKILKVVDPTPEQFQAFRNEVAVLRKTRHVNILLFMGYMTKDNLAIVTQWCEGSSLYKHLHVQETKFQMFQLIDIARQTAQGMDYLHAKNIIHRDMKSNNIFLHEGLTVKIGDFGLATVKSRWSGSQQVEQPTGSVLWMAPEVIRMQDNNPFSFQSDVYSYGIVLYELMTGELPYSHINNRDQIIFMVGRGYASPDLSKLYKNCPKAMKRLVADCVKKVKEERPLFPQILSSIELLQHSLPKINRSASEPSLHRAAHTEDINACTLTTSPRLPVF
T3 sequence (P15056 whole entry, the tested form may be a part): as the sequence (P15056 whole entry V600E, the tested form may be a part) above, with E600V counted along it

## COc1cc2ncnc(Oc3cc(NC(=O)Nc4cc(C(C)(C)C)on4)ccc3Cl)c2cc1OC [Ex 10, 1-(5-tert-butylisoxazol-3-yl)-3-(4-chloro-3-(6,7-dimethoxyquinazolin-4-yloxy)phenyl)urea]
RAF kinases [1]
  Kd: 500 to 1000 nM
[2]; [5]
  S35: D (D > 0.40)

## COc1cc2ncnc(Oc3cccc(NC(=O)Nc4cc(C(F)(F)F)n(-c5ccccc5)n4)c3)c2cc1OC [Ex 169, 1-[3-(6,7-dimethoxyquinazolin-4-yloxy)phenyl]-3-[1-phenyl-5-(trifluoromethyl)-1H-pyrazol-3-yl]urea]
RAF kinases [3]
  Kd: 250 to 500 nM

## COc1cc2ncnc(Oc3cccc(NC(=O)Nc4ccc(Cl)cc4)c3)c2cc1OC [Ex 175, 1-(4-chlorophenyl)-3-(3-(6,7-dimethoxyquinazolin-4-yloxy)phenyl)urea]
RAF kinases [1]
  Kd: < 250 nM
RAF kinases [4]
  Kd: < 250 nM
RAF kinases [3]
  Kd: < 250 nM
[2]; [5]
  S35: C (0.20 < C ≦ 0.40)

## COc1cc2ncnc(Oc3cccc(NC(=O)Nc4cc(C5(C(F)(F)F)CC5)nn4-c4ccc(C)cc4)c3)c2cc1OC [Ex 346, 1-(3-(6,7-dimethoxyquinazolin-4-yloxy)phenyl)-3-(1-p-tolyl-3-(1-(trifluoromethyl)cyclopropyl)-1H-pyrazol-5-yl)urea]
[2]
  S35: D (D > 0.40)
